The values below come from US10508077B2 (FORMA Therapeutics, Inc., priority 2015, dated 2019).

Usually IC50 stands for the concentration needed to halve the response being measured.

A value given as a limit tells only on which side of the number the result lay.

In experiment [1] the target is T1, Recombinant N-terminal GST tag full-length human HDAC8 (Homo sapiens, UniProt Q9BY41).
T1 construct: Recombinant N-terminal GST tag full-length human HDAC8; purchased SignalChem H90-30G-1000; host or cells: Sf9 insect cells (baculovirus)
T1 sequence (Q9BY41 1-377): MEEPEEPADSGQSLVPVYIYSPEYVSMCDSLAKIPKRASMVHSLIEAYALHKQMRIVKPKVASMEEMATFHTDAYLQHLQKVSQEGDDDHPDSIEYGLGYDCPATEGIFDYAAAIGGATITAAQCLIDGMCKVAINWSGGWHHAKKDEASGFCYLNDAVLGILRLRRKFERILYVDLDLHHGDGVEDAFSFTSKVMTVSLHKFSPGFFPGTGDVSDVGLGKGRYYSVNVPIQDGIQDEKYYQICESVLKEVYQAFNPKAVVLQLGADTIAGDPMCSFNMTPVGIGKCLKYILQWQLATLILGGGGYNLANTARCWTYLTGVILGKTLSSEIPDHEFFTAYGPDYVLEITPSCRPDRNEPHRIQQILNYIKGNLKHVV
Briefly: HDAC8 probe binding assay, time resolved fluorescence (TRF). Conditions: fluorescein labeled pan-HDAC inhibitor probe, 16 hours incubation, compounds listed under IC50 range headings. As to the method:
The HDAC8 probe binding assay was performed using a time resolved fluorescence (TRF) assay format. Recombinant N-terminal GST tag full-length human HDAC8 was expressed and purified from baculovirus in Sf9 insect cells (SignalChem, #H90-30G-1000), Each assay was performed in 1536 black well microplates (Corning, #3936) in a final volume of 4 μL in assay buffer containing 50 mM HEPES (pH 7.5), 50 mM KCl, 50 mM NaCl, 0.5 mM GSH (L-Glutathione reduced, Sigma #G4251), 0.03% BGG (0.22 μM filtered, Sigma, #G7516-25G), and 0.01% Triton X-100 (Sigma, #T9284-10L). 20 nL of 10-point, 3-fold serial dilution in DMSO was pre-dispensed into respective wells of 1536 assay plates for a final test concentration range of 25 μM to 1.3 nM respectively. The final concentration in the assay of HDAC8 and probe (a fluorescein labeled pan-HDAC inhibitor) was 2.5 nM and 1.5 nM respectively. 2 μL of 2× probe and 2× anti-GST Terbium (Cisbio, #61GSTXLB) was added to assay plates followed by 2 μL of 2× HDAC8. Plates were incubated for 16 hours at room temperature before time resolved fluorescence was read on the Envision (Excitation at 340 nm, and Emission at 485 nm and 535 nm, Perkin Elmer).
Data from HDAC8 Assays were reported as percent inhibition (inh) compared with control wells based on the following equation: % inh=1−((FLU−AveLow)/(AveHigh−AveLow)) where FLU=measured time resolved fluorescence. AveLow=average time resolved fluorescence of no enzyme control (n=32). AveHigh=average time resolved fluorescence of DMSO control (n=32). IC50 values were determined by curve fitting of the standard 4 parameter logistic fitting algorithm included in the Activity Base software package: IDBS XE Designer Model205. Data is fitted using the Levenburg Marquardt algorithm.

The target of experiment [2] is T2, Full length human recombinant HDAC8 protein (Homo sapiens, UniProt Q9BY41).
T2 construct: Full length human recombinant HDAC8 protein was expressed in baculoviral system; made in house
T2 sequence (Q9BY41 1-377): T1 sequence (Q9BY41 1-377)
The experiment can be described thus: In vitro histone deacetylase assay: enzymatic HDAC8 assay, electrophoretic mobility shift. The class given is biochemical. Conditions: substrate RHKK(Ac)-NH2, 1 nM enzyme, compounds listed under IC50 range headings. The procedure, abridged:
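Baculovirus-expressed full-length human HDAC8 (1 nM) deacetylated 2 µM fluorescent RHKK(Ac)-NH2 peptide in pH 7.5 HEPES, 1% DMSO, at 25 °C, with 12 compound concentrations at 3× spacing. SDS-quenched; product and substrate resolved by microfluidic electrophoresis, P/(S+P) converted to percent inhibition, and IC50 obtained by 4-parameter fit.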
For orientation: In EMSA bound probe runs differently from free probe, usually more slowly.

Consider `O=C(/C=C/c1ccccc1N1CC[C@H](c2ccccc2)C1=O)NO` (single isomer, unassigned) [Example I-327], for which the IC50 in experiment [1] is not above 1000 nM; in experiment [2], less than 1000 nM. The like results for `O=C(/C=C/c1ccccc1N1CC[C@@H](c2ccccc2)C1=O)NO` (single isomer, unassigned) [Example I-328] were, in that order, not above 1000 nM and less than 1000 nM.

`O=C(/C=C/c1ccccc1NCc1ccccc1)NO` [Example I-40]: the concentration for half-maximal inhibition (IC50) in experiment [1] was not above 1000 nM; in experiment [2], less than 1000 nM. For `O=C(/C=C/c1ccccc1NC(=O)c1cccc(C(F)(F)F)c1)NO` [Example I-41, (E)-N-(2-(3-(hydroxyamino)-3-oxoprop-1-en-1-yl)phenyl)-3-(trifluoromethyl)benazmide], the half-inhibitory concentration (IC50) in experiment [1] was not above 1000 nM; in experiment [2], less than 1000 nM.

For `CC(=O)Nc1cccc(CNc2ccccc2/C=C/C(=O)NO)c1` [Example I-43, (E)-3-(2-((3-acetamidobenzyl)amino)phenyl)-N-hydroxyacrylamide], the IC50 is 1000 to 100000 nM in experiment [1] and less than 1000 nM in experiment [2]. The like results for `N#Cc1cccc(C(=O)Nc2ccccc2/C=C/C(=O)NO)c1` [Example I-44, (E)-3-cyano-N-(2-(3-(hydroxyamino)-3-oxoprop-1-en-1-yl)phenyl)benzamide] were, in that order, not above 1000 nM and less than 1000 nM.

As for `N#Cc1cccc(CNc2ccccc2/C=C/C(=O)NO)c1` [Example I-45, (E)-3-(2-((3-cyanobenzyl)amino)phenyl)-N-hydroxyacrylamide], the values for the half-maximal inhibitory concentration (IC50) in experiment [1] and in experiment [2] were 1000 to 100000 nM and less than 1000 nM, respectively.

Turning to `O=C(/C=C/c1ccccc1NCc1cccc(CCCO)c1)NO` [Example I-48, (E)-N-hydroxy-3-(2-((3-(3-hydroxypropyl)benzyl)amino)phenyl)acrylamide], the figures for the 50% inhibitory concentration (IC50) in experiment [1] and in experiment [2] were 1000 to 100000 nM and less than 1000 nM, respectively.

For `O=C(/C=C/c1ccccc1NC(=O)c1cccc(CCCO)c1)NO` [Example I-49, (E)-N-(2-(3-(hydroxyamino)-3-oxoprop-1-en-1-yl)phenyl)-3-(3-hydroxypropyl)benzamide], the IC50 is not above 1000 nM in experiment [1] and less than 1000 nM in experiment [2]. Take `CN(C(=O)c1cccc(C(F)(F)F)c1)c1ccccc1/C=C/C(=O)NO` [Example I-54, (E)-N-(2-(3-(hydroxyamino)-3-oxoprop-1-en-1-yl)phenyl)-N-methyl-3-(trifluoromethyl)benzamide]: the IC50 in experiment [1] was not above 1000 nM; in experiment [2], less than 1000 nM. In the case of `O=C(/C=C/c1ccccc1NC(=O)c1ccc(C(F)(F)F)cc1)NO` [Example I-61, (E)-N-(2-(3-(hydroxyamino)-3-oxoprop-1-en-1-yl)phenyl)-4-(trifluoromethyl)benzamide], the results for the half-inhibitory concentration (IC50) in experiment [1] and in experiment [2] were not above 1000 nM and less than 1000 nM, respectively.

Turning to `O=C(/C=C/c1ccccc1NC(=O)c1ccc2[nH]ccc2c1)NO` [Example I-62, (E)-N-(2-(3-(hydroxyamino)-3-oxoprop-1-en-1-yl)phenyl)-1H-indole-5-carboxamide], the IC50 in experiment [1] is not above 1000 nM; in experiment [2] it was less than 1000 nM. Turning to `O=C(/C=C/c1ccccc1NC(=O)C1CCc2ccccc2C1)NO` (stereo not drawn) [Example I-65, (E)-N-(2-(3-(hydroxyamino)-3-oxoprop-1-en-1-yl)phenyl)-1,2,3,4-tetrahydronaphthalene-2-carboxamide], the concentration for half-maximal inhibition (IC50) in experiment [1] is not above 1000 nM; in experiment [2], less than 1000 nM. For `Cc1ccc(CC(=O)Nc2ccccc2/C=C/C(=O)NO)cc1` [Example I-66, (E)-N-hydroxy-3-(2-(2-(p-tolyl)acetamido)phenyl)acrylamide], in that order: not above 1000 nM and less than 1000 nM.

On to `CC(C)CCC(=O)Nc1ccccc1/C=C/C(=O)NO` [Example I-67, (E)-N-(2-(3-(hydroxyamino)-3-oxoprop-1-en-1-yl)phenyl)-4-methylpentanamide], for which the half-maximal inhibitory concentration (IC50) in experiment [1] is not above 1000 nM; in experiment [2] it was less than 1000 nM. In the case of `O=C(/C=C/c1ccccc1NC(=O)CC1CCCC1)NO` [Example I-68, (E)-3-(2-(2-cyclopentylacetamido)phenyl)-N-hydroxyacrylamide], the 50% inhibitory concentration (IC50) in experiment [1] was not above 1000 nM; in experiment [2], less than 1000 nM. Regarding `CC(C)C(=O)Nc1ccccc1/C=C/C(=O)NO` [Example I-69, (E)-N-hydroxy-3-(2-isobutyramidophenyl)acrylamide], the IC50 in experiment [1] was not above 1000 nM; in experiment [2] it was less than 1000 nM.

Turning to `O=C(/C=C/c1ccccc1NC(=O)c1ccc(OC(F)F)cc1)NO` [Example I-70, (E)-4-(difluoromethxoy)-N-(2-(3-(hydroxyamino)-3-oxoprop-1-en-1-yl)phenyl)benzamide], the concentration for half-maximal inhibition (IC50) is not above 1000 nM in experiment [1] and less than 1000 nM in experiment [2]. On to `O=C(/C=C/c1ccccc1NC(=O)c1ccccc1Oc1ccccc1)NO` [Example I-71, (E)-N-(2-(3-(hydroxyamino)-3-oxoprop-1-enyl)phenyl)-2-phenoxybenzamide], for which the concentration for half-maximal inhibition (IC50) is not above 1000 nM in experiment [1] and less than 1000 nM in experiment [2]. Consider `O=C(/C=C/c1ccccc1NC(=O)c1ccc(-n2cccn2)cc1)NO` [Example I-72, (E)-N-(2-(3-(hydroxyamino)-3-oxoprop-1-en-1-yl)phenyl)-4-(1H-pyrazol-1-yl)benzamide], for which the half-maximal inhibitory concentration (IC50) in experiment [1] is not above 1000 nM; in experiment [2], less than 1000 nM.

Take `O=C(/C=C/c1ccccc1NC(=O)[C@H]1C[C@H]1c1ccccc1)NO` [Example I-73, (1S,2R)-N-(2-((E)-3-(hydroxyamino)-3-oxoprop-1-en-1-yl)phenyl)-2-phenylcyclopropane-1-carboxamide]: the results for the IC50 in experiment [1] and in experiment [2] were not above 1000 nM and less than 1000 nM, respectively. On to `O=C(/C=C/c1ccccc1NC(=O)c1csc(-c2cccnc2)n1)NO` [Example I-75, (E)-N-(2-(3-(hydroxyamino)-3-oxoprop-1-en-1-yl)phenyl)-2-(pyridin-3-yl)thiazole-4-carboxamide], for which the IC50 in experiment [1] is not above 1000 nM; in experiment [2], less than 1000 nM. For `O=C(/C=C/c1ccccc1NC(=O)c1cnc(-c2cccnc2)s1)NO` [Example I-76, (E)-N-(2-(3-(hydroxyamino)-3-oxoprop-1-en-1-yl)phenyl)-2-(pyridin-3-yl)thiazole-5-carboxamide], in that order: not above 1000 nM and less than 1000 nM.

Take `O=C(/C=C/c1ccccc1NC(=O)c1cc2ccccc2[nH]1)NO` [Example I-77]: the values for the IC50 in experiment [1] and in experiment [2] were not above 1000 nM and less than 1000 nM, respectively.

As to `CCn1c(C(=O)Nc2ccccc2/C=C/C(=O)NO)cc2ccccc21` [Example I-79, (E)-1-ethyl-N-(2-(3-(hydroxyamino)-3-oxoprop-1-en-1-yl)phenyl)-1H-indole-2-carboxamide], the concentration for half-maximal inhibition (IC50) in experiment [1] is not above 1000 nM; in experiment [2], less than 1000 nM. For `O=C(/C=C/c1ccccc1NC(=O)[C@H]1C[C@@H]1c1ccccc1)NO` [Example I-83, (1S,2S)-N-(2-((E)-3-(hydroxyamino)-3-oxoprop-1-en-1-yl)phenyl)-2-phenylcyclopropane-1-carboxamide], in that order: not above 1000 nM and less than 1000 nM. The like results for `O=C(/C=C/c1ccccc1NC(=O)C1CCC2(CC1)CC2)NO` [Example I-84, (E)-N-(2-(3-(hydroxyamino)-3-oxoprop-1-en-1-yl)phenyl)spiro[2.5]octane-6-carboxamide] were, in that order, not above 1000 nM and less than 1000 nM. For the molecule `CS(=O)(=O)c1nc(C(=O)Nc2ccccc2/C=C/C(=O)NO)c2ccccn12` [Example I-85, (E)-N-(2-(3-(hydroxyamino)-3-oxoprop-1-en-1-yl)phenyl)-3-(methylsulfonyl)imidazo[1,5-a]pyridine-1-carboxamide], the results for the IC50 in experiment [1] and in experiment [2] were not above 1000 nM and less than 1000 nM, respectively. Regarding `O=C(/C=C/c1ccccc1N1CCN(c2ccc(Cl)c(C(F)(F)F)c2)CC1=O)NO` [Example I-582, (E)-3-(2-(4-(4-chloro-3-(trifluoromethyl)phenyl)-2-oxopiperazin-1-yl)phenyl)-N-hydroxyacrylamide], the concentration for half-maximal inhibition (IC50) in experiment [1] was 1000 to 100000 nM.
